Data reported in the supplement of paper PMC9663587.

Tests used:
Neratinib/HKI272 = compound: CCOc1cc2ncc(C#N)c(Nc3ccc(OCc4ccccn4)c(Cl)c3)c2cc1NC(=O)/C=C/CN(C)C [Neratinib/HKI272]; test: increase in dead-cell fraction, 72 h; higher = more death;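 note: breast cancer cell lines in 384-well plates, stained with Hoechst plus LIVE/DEAD far red dye and imaged, cells above an LDR intensity threshold counted dead, Hoechst-negative corpses included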
BSJ-03-123 = compound: CC(=O)c1c(C)c2cnc(Nc3ccc(N4CCN(CCOCCOCCOCCNC(=O)COc5cccc6c5C(=O)N(C5CCC(=O)NC5=O)C6=O)CC4)cn3)nc2n(C2CCCC2)c1=O [BSJ-03-123]; test: as above
[1] = compound: CC(=O)c1c(C)c2cnc(Nc3ccc(N4CCNCC4)cn3)nc2n(C2CCCC2)c1=O; test: as above
[2] = compound: CCc1cnn2c(NCc3ccc[n+]([O-])c3)cc(N3CCCC[C@H]3CCO)nc12; test: as above
YKL-5-124 = compound: C=CC(=O)Nc1ccc(C(=O)Nc2[nH]nc3c2CN(C(=O)N[C@H](CN(C)C)c2ccccc2)C3(C)C)cc1 [YKL-5-124]; test: as above
THZ531 [3] = compound: T1, CN(C)C/C=C/C(=O)Nc1ccc(C(=O)N2CCC[C@@H](Nc3ncc(Cl)c(-c4c[nH]c5ccccc45)n3)C2)cc1 [THZ531]; test: as above
THZ1 [4] = compound: T2, CN(C)C/C=C/C(=O)Nc1ccc(C(=O)Nc2cccc(Nc3ncc(Cl)c(-c4c[nH]c5ccccc45)n3)c2)cc1 [THZ1]; test: as above
LEE011/Ribociclib = compound: CN(C)C(=O)c1cc2cnc(Nc3ccc(N4CCNCC4)cn3)nc2n1C1CCCC1 [LEE011/Ribociclib]; test: as above
[5] = compound: CO[C@@H](C)Cn1c(=O)n(C)c2cnc3ccc(-c4cncc(C(C)(C)O)c4)cc3c21
[6] = compound: CC(=O)Nc1cccc(-n2c(=O)n(C3CC3)c(=O)c3c(Nc4ccc(I)cc4F)n(C)c(=O)c(C)c32)c1
Alpelisib/BYL719 = compound: Cc1nc(NC(=O)N2CCC[C@H]2C(N)=O)sc1-c1ccnc(C(C)(C)C(F)(F)F)c1 [Alpelisib/BYL719]
[7] = compound: CCCCOc1c(C(=O)c2c(F)cc(C)cc2F)c[nH]c2nncc1-2
AZD1775 = compound: C=CCn1c(=O)c2cnc(Nc3ccc(N4CCN(C)CC4)cc3)nc2n1-c1cccc(C(C)(C)O)n1 [AZD1775]
[8] = compound: COc1ccc2c(c1)[C@]1(C[C@H]1c1ccc3c(/C=C/c4ccc(CN5C[C@@H](C)O[C@@H](C)C5)cc4)n[nH]c3c1)C(=O)N2
THZ531 [9] = compound: T1, THZ531
THZ1 [10] = compound: T2, THZ1
BVD523 = compound: CC(C)Nc1cc(-c2c[nH]c(C(=O)N[C@H](CO)c3cccc(Cl)c3)c2)c(Cl)cn1 [BVD523]
Rucaparib = compound: CNCc1ccc(-c2[nH]c3cc(F)cc4c3c2CCNC4=O)cc1 [Rucaparib]
Cediranib/AZD2171 = compound: COc1cc2c(Oc3ccc4[nH]c(C)cc4c3F)ncnc2cc1OCCCN1CCCC1 [Cediranib/AZD2171]
Saracatinib/AZD0530 = compound: CN1CCN(CCOc2cc(OC3CCOCC3)c3c(Nc4c(Cl)ccc5c4OCO5)ncnc3c2)CC1 [Saracatinib/AZD0530]
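Throughout, for GR50, 72 h: breast cancer and non-malignant breast epithelial cell lines, Deep Dye Drop or Dye Drop imaging, nine half-log doses, GR normalized to time-zero plates and DMSO-only controls.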

Cell Line: SUM159
- increase in dead-cell fraction (Neratinib/HKI272; 0.0003162 µM): -0.005
- increase in dead-cell fraction (Neratinib/HKI272; 0.001 µM): -0.0025
- increase in dead-cell fraction (Neratinib/HKI272; 0.003162 µM): -0.0041
- increase in dead-cell fraction (Neratinib/HKI272; 0.01 µM): -0.0075
- increase in dead-cell fraction (Neratinib/HKI272; 0.03162 µM): -0.0087
- increase in dead-cell fraction (Neratinib/HKI272; 0.1 µM): -0.0118
- increase in dead-cell fraction (Neratinib/HKI272; 0.3162 µM): -0.0133
- increase in dead-cell fraction (Neratinib/HKI272; 1 µM): -0.01
- increase in dead-cell fraction (Neratinib/HKI272; 3.162 µM): -0.004
- increase in dead-cell fraction (BSJ-03-123; 0.001 µM): -0.0023
- increase in dead-cell fraction (BSJ-03-123; 0.003162 µM): 0.0027
- increase in dead-cell fraction (BSJ-03-123; 0.01 µM): -0.003
- increase in dead-cell fraction (BSJ-03-123; 0.03162 µM): 0.0063
- increase in dead-cell fraction (BSJ-03-123; 0.1 µM): 0.0055
- increase in dead-cell fraction (BSJ-03-123; 0.3162 µM): 0.0076
- increase in dead-cell fraction (BSJ-03-123; 1 µM): 0.0134
- increase in dead-cell fraction (BSJ-03-123; 3.162 µM): 0.0322
- increase in dead-cell fraction (BSJ-03-123; 10 µM): 0.28
- increase in dead-cell fraction ([1]; 0.0003162 µM): 0
- increase in dead-cell fraction ([1]; 0.001 µM): 0.0001
- increase in dead-cell fraction ([1]; 0.003162 µM): -0.0023
- increase in dead-cell fraction ([1]; 0.01 µM): -0.0027
- increase in dead-cell fraction ([1]; 0.03162 µM): -0.009
- increase in dead-cell fraction ([1]; 0.1 µM): -0.0094
- increase in dead-cell fraction ([1]; 0.3162 µM): -0.0078
- increase in dead-cell fraction ([1]; 1 µM): -0.0049
- increase in dead-cell fraction ([1]; 3.162 µM): -0.0004
- increase in dead-cell fraction ([2]; 0.0001 µM): -0.0009
- increase in dead-cell fraction ([2]; 0.0003162 µM): -0.0008
- increase in dead-cell fraction ([2]; 0.001 µM): -0.0012
- increase in dead-cell fraction ([2]; 0.003162 µM): 0.0013
- increase in dead-cell fraction ([2]; 0.01 µM): 0.0076
- increase in dead-cell fraction ([2]; 0.03162 µM): 0.299
- increase in dead-cell fraction ([2]; 0.1 µM): 0.226
- increase in dead-cell fraction ([2]; 0.3162 µM): 0.238
- increase in dead-cell fraction ([2]; 1 µM): 0.246
- increase in dead-cell fraction (YKL-5-124; 0.001 µM): 0.08
- increase in dead-cell fraction (YKL-5-124; 0.003162 µM): 0.19
- increase in dead-cell fraction (YKL-5-124; 0.01 µM): 0.247
- increase in dead-cell fraction (YKL-5-124; 0.03162 µM): 0.231
- increase in dead-cell fraction (YKL-5-124; 0.1 µM): 0.221
- increase in dead-cell fraction (YKL-5-124; 0.3162 µM): 0.273
- increase in dead-cell fraction (YKL-5-124; 1 µM): 0.246
- increase in dead-cell fraction (YKL-5-124; 3.162 µM): 0.332
- increase in dead-cell fraction (YKL-5-124; 10 µM): 0.436
- increase in dead-cell fraction (THZ531 [3]; 0.0001 µM): 0.0035
- increase in dead-cell fraction (THZ531 [3]; 0.0003162 µM): -0.0023
- increase in dead-cell fraction (THZ531 [3]; 0.001 µM): -0.002
- increase in dead-cell fraction (THZ531 [3]; 0.003162 µM): -0.003
- increase in dead-cell fraction (THZ531 [3]; 0.01 µM): 0.0062
- increase in dead-cell fraction (THZ531 [3]; 0.03162 µM): -0.0033
- increase in dead-cell fraction (THZ531 [3]; 0.1 µM): -0.0055
- increase in dead-cell fraction (THZ531 [3]; 0.3162 µM): -0.0016
- increase in dead-cell fraction (THZ531 [3]; 1 µM): 0.0161
- increase in dead-cell fraction (THZ1 [4]; 0.0001 µM): -0.005
- increase in dead-cell fraction (THZ1 [4]; 0.0003162 µM): -0.0055
- increase in dead-cell fraction (THZ1 [4]; 0.001 µM): -0.0004
- increase in dead-cell fraction (THZ1 [4]; 0.003162 µM): -0.0006
- increase in dead-cell fraction (THZ1 [4]; 0.01 µM): 0.001
- increase in dead-cell fraction (THZ1 [4]; 0.03162 µM): 0.0024
- increase in dead-cell fraction (THZ1 [4]; 0.1 µM): 0.0084
- increase in dead-cell fraction (THZ1 [4]; 0.3162 µM): 0.0412
- increase in dead-cell fraction (THZ1 [4]; 1 µM): 0.212
- increase in dead-cell fraction (LEE011/Ribociclib; 0.001 µM): -0.0013
- increase in dead-cell fraction (LEE011/Ribociclib; 0.003162 µM): 0.0006
- increase in dead-cell fraction (LEE011/Ribociclib; 0.01 µM): 0.0082
- increase in dead-cell fraction (LEE011/Ribociclib; 0.03162 µM): 0.013
- increase in dead-cell fraction (LEE011/Ribociclib; 0.1 µM): 0.0057
- increase in dead-cell fraction (LEE011/Ribociclib; 0.3162 µM): 0.0121
- increase in dead-cell fraction (LEE011/Ribociclib; 1 µM): 0.0033
- increase in dead-cell fraction (LEE011/Ribociclib; 3.162 µM): 0.0075
- increase in dead-cell fraction (LEE011/Ribociclib; 10 µM): 0.0212
- GR50, 72 h [5]: 0.00127 µM
- GR50, 72 h [6]: 0.0316 µM
- GR50, 72 h (Alpelisib/BYL719): > 10 µM
- GR50, 72 h [7]: 0.159 µM
- GR50, 72 h (AZD1775): 2.05 µM
- GR50, 72 h [8]: 0.00426 µM
- GR50, 72 h (THZ531 [9]): > 1 µM
- GR50, 72 h (THZ1 [10]): 0.361 µM
- GR50, 72 h (BVD523): 1.91 µM
- GR50, 72 h (Rucaparib): > 10 µM
- GR50, 72 h (Cediranib/AZD2171): > 10 µM
- GR50, 72 h (Saracatinib/AZD0530): > 10 µM
